Each structure is given as a SMILES string.

`COc1cc(-c2ncc([S+](C)[O-])cc2Cl)c(F)cc1Cl` (stereo not shown) [No. 6, 3-Chloro-2-(4-chloro-2-fluoro-5-methoxyphenyl)-5-methylsulfinylpyridine] displayed a melting point of 118 °C.

One may read the melting point as the temperature, or range, at which the solid turns liquid.

(Values after patent US6448205B1, “Substituted 2-phenylpyridine as herbicide” (BASF Aktiengesellschaft, priority 1996, dated 2002).)
